{"source": "patent US20250101062A1", "about": "“ANTIMICROBIAL PEPTIDES” (Board of Regents of the University of Nebraska, priority 2023, published 2025)", "key": {"E. coli E423-17 [1]": {"test_system": "E. coli E423-17", "type": "cell-based, Escherichia coli", "conditions": "MHB 100%"}, "S. epidermidis 1457": {"test_system": "S. epidermidis 1457", "test": "microbe, parasite or virus in culture", "type": "cell-based, Staphylococcus epidermidis", "conditions": "Staphylococcus epidermidis, MHB, Table 8, read-out: Antimicrobial activity (MIC) S. epidermidis 1457", "summary_of_the_method": "(§1)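 Peptides twofold serially diluted against exponential-phase resistant clinical isolates at ~10^5 CFU/mL in MHB (also diluted MHB, TSB or LB in one protocol), CLSI-based broth microdilution. Incubated overnight at 37° C., OD 600 nm read; MIC taken as lowest concentration without growth, reported as ranges.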"}, "K. pneumoniae E406-17": {"test_system": "K. pneumoniae E406-17", "type": "cell-based, Klebsiella pneumoniae", "summary_of_the_method": "as §1"}, "A. baumannii B28-16": {"test_system": "A. baumannii B28-16", "type": "cell-based, Acinetobacter baumannii", "conditions": "B28-16", "summary_of_the_method": "as §1"}, "E. coli E423-17 [2]": {"test_system": "E. coli E423-17", "test": "Membrane permeabilization (propidium iodide)", "type": "cell-based, Escherichia coli", "conditions": "Example 1, 1×MIC"}, "E. coli E423-17 [3]": {"test_system": "E. coli E423-17", "test": "Membrane depolarization (DiBAC4(3))", "type": "cell-based, Escherichia coli", "conditions": "Example 1"}, "MRSA USA300": {"test_system": "MRSA USA300", "test": "Biofilm inhibition", "type": "cell-based, Staphylococcus aureus", "conditions": "0.5 to 2×MIC, 24 h", "method": "Biofilm Inhibition. MRSA USA300 (10^5 CFU/mL) was prepared from the exponential phase. […] Media were then pipetted out, and the wells were washed with 1×PBS to remove planktonic cells. Live cells in biofilms were quantitated by XTT as described above."}, "trypsin": {"test_system": "trypsin", "conditions": "peptide:protease 40:1, 37° C., 1 hour", "method": "A solution of peptide/protease (40:1 molar ratio) was made in phosphate-buffered saline (PBS; pH 7.1, Gibco, NY) and incubated at 37° C. for 1 hour. As controls, peptides without proteases were also incubated in the same manner. Then, aliquots of 10 μL were transferred to a 96-well polystyrene microplate and mixed with the exponential-phase MRSA USA300 culture as performed in the antibacterial activity assays above."}, "S. aureus USA300 LAC": {"test_system": "S. aureus USA300 LAC", "test": "Scanning electron microscopy", "type": "cell-based, Staphylococcus aureus", "conditions": "2×MIC, 30 minutes", "method": "The exponential-phase S. aureus USA300 LAC was treated with a 2×MIC of LL-37mini for 30 minutes. Samples were washed three times with 1×PBS and fixed with 2% paraformaldehyde and 2% glutaraldehyde in 0.1 M PBS. Next, the samples were washed with Sorensen's buffer and postfixed in 1% osmium tetroxide in water for 30 minutes. All samples were then washed in Sorensen's buffer and dehydrated through a graded ethanol series (50, 70, 90, 95, and 100% with ×3 changes). Subsequently, samples were placed in […] 100% for 10 minutes with three changes and left in HMDS in open dishes in the fume hood overnight to allow the HMDS to evaporate. The following day, the samples were mounted on 25 mm aluminum SEM stubs with carbon adhesive tabs. Silver paste was placed around the edges of the samples. Samples were sputter coated with 50 nm of gold/palladium in a Hummer VI sputter coater (Anatech Ltd., Battle Creek, MI) and examined in an FEI Quanta 200 SEM at the UNMC Electron Microscopy Core Facility."}}, "note": "Where no end group is shown, it is not given here."}
{"compound": "CC[C@H](C)[C@H](NC(=O)[C@H](CCCCN)NC(=O)[C@H](CCC(=O)O)NC(=O)[C@H](CCCCN)NC(=O)[C@H](CO)NC(=O)[C@H](CCCCN)NC(=O)[C@H](CCCNC(=N)N)NC(=O)[C@H](Cc1ccccc1)NC(=O)[C@H](Cc1ccccc1)NC(=O)[C@H](CC(=O)O)NC(=O)CNC(=O)[C@H](CC(C)C)NC(=O)[C@@H](N)CC(C)C)C(=O)NCC(=O)N[C@@H](CCCCN)C(=O)N[C@@H](CCC(=O)O)C(=O)N[C@@H](Cc1ccccc1)C(=O)N[C@@H](CCCCN)C(=O)N[C@@H](CCCNC(=N)N)C(=O)N[C@H](C(=O)N[C@H](C(=O)N[C@@H](CCC(N)=O)C(=O)N[C@@H](CCCNC(=N)N)C(=O)N[C@H](C(=O)N[C@@H](CCCCN)C(=O)N[C@@H](CC(=O)O)C(=O)N[C@@H](Cc1ccccc1)C(=O)N[C@@H](CC(C)C)C(=O)N[C@@H](CCCNC(=N)N)C(=O)N[C@@H](CC(N)=O)C(=O)N[C@@H](CC(C)C)C(=O)N[C@H](C(=O)N1CCC[C@H]1C(=O)N[C@@H](CCCNC(=N)N)C(=O)N[C@H](C(=O)N[C@@H](CCC(=O)O)C(=O)N[C@@H](CO)C(=O)O)[C@@H](C)O)C(C)C)[C@@H](C)CC)C(C)C)[C@@H](C)CC", "note": "[LL-37]", "values": [{"measurement": "Antimicrobial activity (MIC)", "setting": "E. coli E423-17 [1]", "result": "active"}]}
{"compound": "CCCCCCCCCC(=O)N[C@@H](Cc1c[nH]c2ccccc12)C(=O)N[C@H](CC(N)=O)C(=O)N[C@@H](CC(=O)O)C(=O)N[C@@H]1C(=O)NCC(=O)N[C@@H](CCCN)C(=O)N[C@@H](CC(=O)O)C(=O)N[C@H](C)C(=O)N[C@@H](CC(=O)O)C(=O)NCC(=O)N[C@H](CO)C(=O)N[C@@H]([C@H](C)CC(=O)O)C(=O)N[C@@H](CC(=O)c2ccccc2N)C(=O)O[C@@H]1C", "note": "[Daptomycin]", "values": [{"measurement": "MIC", "setting": "S. epidermidis 1457", "result": "0.5 to 1", "unit": "µM"}]}
{"compound": "RRWWRWWR-NH2 [W543]", "values": [{"measurement": "Activity (MIC) K. pneumoniae", "setting": "K. pneumoniae E406-17", "result": ">32", "unit": "µM"}, {"measurement": "Activity (MIC) A. baumannii", "setting": "A. baumannii B28-16", "result": ">32", "unit": "µM"}, {"measurement": "membrane permeabilization", "setting": "E. coli E423-17 [2]", "result": "30 minute delay in membrane permeabilization"}, {"measurement": "membrane depolarization", "setting": "E. coli E423-17 [3]", "result": "some depolarization"}, {"measurement": "inhibition of biofilm formation", "setting": "MRSA USA300", "result": "more effective than daptomycin"}, {"measurement": "activity after protease incubation", "setting": "trypsin", "result": "started to lose activity"}, {"measurement": "cell morphology by SEM", "setting": "S. aureus USA300 LAC", "result": "cell damages were evident"}]}
